Measured values taken from patent US7271147B2, “Antibiotics, tripropeptins and process for producing the same” (Zaidan Hojin Biseibutsu Kagaku Kenkyu Kai, priority 2000, dated 2007).
Converted amounts (≈) assume the structure as drawn. Like-named read-outs stand apart in the source and are kept apart here. Starred links: 1 amine or outer side, 2 acyl side, 3 side chain; linkers in the order of their positions; H or OH if unused. Positions of bridges follow the written chain, without caps; N, C: chain ends. Non-standard residues stand in square brackets, D forms with d. Residues, ends and D or L forms follow the SMILES beside them. ξ: configuration not given here. X4 = CC(C)CCCCCCCCCCC(CC(=O)[*:1])O[*:2]; X2 = CC(C)CCCCCCCCCC(CC(=O)[*:1])O[*:2]; X3 = CC(C)CCCCCCC(CC(=O)[*:1])O[*:2]; ξAsp(3ξ-OH) = NC(C(=O)O)C(O)C(=O)O; X1 = O=C(C1C(O)CCN1[*:1])[*:2]

Experiments:
[1] = system: Enterococcus faecalis NCTC 12203 (vancomycin-resistant); experiment: Minimum growth inhibitory concentration, agar serial dilution; type: cell-based; settings: NCTC12203, 5% sheep blood-supplemented Mueller-Hinton agar
[2] = system: Bacillus cereus ATCC10702; experiment: as above; type: cell-based
Micrococcus luteus FDA16 = experiment: as above; type: cell-based; settings: Mueller-Hinton agar
[3] = system: Klebsiella pneumoniae PCI602; experiment: as above; type: cell-based; settings: Mueller-Hinton agar
[4] = system: Staphylococcus aureus FDA209P; experiment: as above; type: cell-based; settings: Mueller-Hinton agar
Shigella sonnei JS11746 = experiment: as above; type: cell-based; settings: Mueller-Hinton agar
Method: Minimum growth inhibitory concentrations (μg/ml) of tripropeptin Z against a variety of microorganisms were measured on a Mueller-Hinton agar medium (manufactured by Difco Laboratories) or on a 5% sheep blood-supplemented Mueller-Hinton agar medium (manufactured by Difco Laboratories) for Enterococcus, by a serial dilution method according to the standard method as provided by Japanese Society of Chemotherapy.
Minimum growth inhibitory concentrations (μg/ml) of tripropeptin A against a variety of microorganisms were measured on a Mueller-Hinton agar medium (manufactured by Difco Laboratories) or on a 5% sheep blood-supplemented Mueller-Hinton agar medium (manufactured by Difco Laboratories) for Enterococcus, by a serial dilution method according to the standard method as provided by Japanese Society of Chemotherapy.
Minimum growth inhibitory concentrations (μg/ml) of tripropeptin B against a variety of microorganisms were measured on a Mueller-Hinton agar medium (manufactured by Difco Laboratories) or on a 5% sheep blood-supplemented Mueller-Hinton agar medium (manufactured by Difco Laboratories) for Enterococcus, by a serial dilution method according to the standard method as provided by Japanese Society of Chemotherapy.
Minimum growth inhibitory concentrations (μg/ml) of tripropeptin C against a variety of microorganisms were measured on a Mueller-Hinton agar medium (manufactured by Difco Laboratories) or on a 5% sheep blood-supplemented Mueller-Hinton agar medium (manufactured by Difco Laboratories) for Enterococcus, by a serial dilution method according to the standard method as provided by Japanese Society of Chemotherapy.
Minimum growth inhibitory concentrations (μg/ml) of tripropeptin D against a variety of microorganisms were measured on a Mueller-Hinton agar medium (manufactured by Difco Laboratories) or on a 5% sheep blood-supplemented Mueller-Hinton agar medium (manufactured by Difco Laboratories) for Enterococcus, by a serial dilution method according to the standard method as provided by Japanese Society of Chemotherapy.

[5] = system: Enterococcus faecalis JCM5803; experiment: as above; type: cell-based; settings: 5% sheep blood-supplemented Mueller-Hinton agar
[6] = system: Enterococcus faecalis NCTC 12201 (vancomycin-resistant); experiment: as above; type: cell-based; settings: NCTC12201, 5% sheep blood-supplemented Mueller-Hinton agar
Salmonella typhi T-63 = experiment: as above; type: cell-based; settings: Salmonella enterica, Mueller-Hinton agar
[7] = system: Staphylococcus aureus MS16526 (methicillin-resistant); experiment: as above; type: cell-based; settings: Mueller-Hinton agar
[8] = system: Enterococcus faecium NCTC 12202 (vancomycin-resistant); experiment: as above; type: cell-based; settings: NCTC12202, 5% sheep blood-supplemented Mueller-Hinton agar
[9] = system: Staphylococcus aureus Smith; experiment: as above; type: cell-based; settings: Mueller-Hinton agar
[10] = system: Staphylococcus aureus MS16497 (methicillin-resistant); experiment: as above; type: cell-based; settings: Mueller-Hinton agar
[11] = system: Staphylococcus aureus TY-03456 (methicillin-resistant); experiment: as above; type: cell-based; settings: read-out: Minimum growth inhibitory concentration
[12] = system: Staphylococcus aureus TY-00933 (methicillin-resistant); experiment: as above; type: cell-based; settings: read-out: Minimum growth inhibitory concentration
[13] = system: mice (ICR type, 4 weeks-aged, male); settings: mouse, in vivo, iv, 300 mg/kg
Description: However, an optimal dose of a tripropeptin can be decided by experts through suitable preliminary tests.

[14] = system: Corynebacterium bovis 1810; experiment: Minimum growth inhibitory concentration, agar serial dilution; type: cell-based; settings: Mueller-Hinton agar
[15] = system: Enterococcus faecium JCM5804; experiment: as above; type: cell-based; settings: 5% sheep blood-supplemented Mueller-Hinton agar
Bacillus subtilis PCI219 = experiment: as above; type: cell-based; settings: Mueller-Hinton agar
[16] = system: Enterococcus faecium NCTC 12204 (vancomycin-resistant); experiment: as above; type: cell-based; settings: NCTC12204, 5% sheep blood-supplemented Mueller-Hinton agar
Bacillus anthracis = experiment: microbe, parasite or virus in culture; type: cell-based; settings: read-out: Minimum growth inhibitory concentration
[17] = system: Staphylococcus aureus TY-03454 (methicillin-resistant); experiment: Minimum growth inhibitory concentration, agar serial dilution; type: cell-based; settings: Mueller-Hinton agar
[18] = system: Staphylococcus aureus TY-04282 (methicillin-resistant); experiment: as above; type: cell-based; settings: Mueller-Hinton agar
[19] = system: Staphylococcus aureus MS9610 (multi-drug-resistant); experiment: as above; type: cell-based; settings: Mueller-Hinton agar
[20] = system: Staphylococcus aureus MS16460 (methicillin-resistant); experiment: as above; type: cell-based; settings: read-out: Minimum growth inhibitory concentration
[21] = Bacillus cereus, ATCC10702, read-out: Minimum growth inhibitory concentration
[22] = Staphylococcus aureus TY-03456 (methicillin-resistant), Mueller-Hinton agar
[23] = Staphylococcus aureus TY-00933 (methicillin-resistant), Mueller-Hinton agar

Row | SMILES | MIC [1] [µg/mL] | MIC (Micrococcus luteus FDA16) [µg/mL] | MIC [3] [µg/mL] | MIC [4] [µg/mL] | MIC (Shigella sonnei JS11746) [µg/mL] | MIC [5] [µg/mL] | MIC [6] [µg/mL] | MIC (Salmonella typhi T-63) [µg/mL] | MIC [7] [µg/mL] | MIC [8] [µg/mL] | MIC [9] [µg/mL] | MIC [10] [µg/mL] | MIC [14] [µg/mL] | MIC [15] [µg/mL] | MIC (Bacillus subtilis PCI219) [µg/mL] | MIC [16] [µg/mL] | MIC (Bacillus anthracis) [µg/mL] | MIC [17] [µg/mL] | MIC [18] [µg/mL] | MIC [19] [µg/mL] | other results
1 | CC(C)CCCCCCCCCC1CC(=O)NC(C(C)O)C(=O)N2CCCC2C(=O)N2CCCC2C(=O)NC(CCCNC(=N)N)C(=O)NC(C(O)C(=O)O)C(=O)NC(CO)C(=O)N2CCC(O)C2C(=O)NC(C(O)C(=O)O)C(=O)O1 (stereo not shown) [Tripropeptin C] (TPPR[ξAsp(3ξ-OH)]S[X1][ξAsp(3ξ-OH)]; linker N-C via X2; configuration not given here) | 25 (≈ 21.7 µM) | 0.2 (≈ 0.173 µM) | > 100 | 1.56 (≈ 1.35 µM) | > 100 | 12.5 (≈ 10.8 µM) | 6.25 (≈ 5.41 µM) | > 100 | 1.56 (≈ 1.35 µM) | 12.5 (≈ 10.8 µM) | 1.56 (≈ 1.35 µM) | 1.56 (≈ 1.35 µM) | 0.39 (≈ 0.338 µM) | 12.5 (≈ 10.8 µM) | 1.56 (≈ 1.35 µM) | 12.5 (≈ 10.8 µM) | 3.13 (≈ 2.71 µM) | 1.56 (≈ 1.35 µM) | 1.56 (≈ 1.35 µM) | 1.56 (≈ 1.35 µM) | MIC [2, 21]: 3.13 µg/mL (≈ 2.71 µM); MIC ([11]; Staphylococcus aureus): 3.13 µg/mL (≈ 2.71 µM); MIC ([12]; Staphylococcus aureus): 3.13 µg/mL (≈ 2.71 µM); Toxicity [13]: did not exhibit any toxicity; MIC ([20]; Staphylococcus aureus): 3.13 µg/mL (≈ 2.71 µM)
2 | CC(C)CCCCCCCCCCC1CC(=O)NC(C(C)O)C(=O)N2CCCC2C(=O)N2CCCC2C(=O)NC(CCCNC(=N)N)C(=O)NC(C(O)C(=O)O)C(=O)NC(CO)C(=O)N2CCC(O)C2C(=O)NC(C(O)C(=O)O)C(=O)O1 (stereo not shown) [Tripropeptin D] (TPPR[ξAsp(3ξ-OH)]S[X1][ξAsp(3ξ-OH)]; linker N-C via X4; configuration not given here) | 6.25 (≈ 5.35 µM) | 0.2 (≈ 0.171 µM) | > 100 | 0.39 (≈ 0.334 µM) | > 100 | 3.13 (≈ 2.68 µM) | 3.13 (≈ 2.68 µM) | > 100 | 0.78 (≈ 0.668 µM) | 6.25 (≈ 5.35 µM) | 0.39 (≈ 0.334 µM) | 0.78 (≈ 0.668 µM) | 0.2 (≈ 0.171 µM) | 6.25 (≈ 5.35 µM) | 0.78 (≈ 0.668 µM) | 6.25 (≈ 5.35 µM) | 1.56 (≈ 1.34 µM) | 0.78 (≈ 0.668 µM) | 0.78 (≈ 0.668 µM) | 0.78 (≈ 0.668 µM) | MIC [2, 21]: 1.56 µg/mL (≈ 1.34 µM); MIC [11, 22]: 0.78 µg/mL (≈ 0.668 µM); MIC [12, 23]: 0.78 µg/mL (≈ 0.668 µM); MIC ([20]; Staphylococcus aureus): 1.56 µg/mL (≈ 1.34 µM)
3 | CC(C)CCCCCCC1CC(=O)NC(C(C)O)C(=O)N2CCCC2C(=O)N2CCCC2C(=O)NC(CCCNC(=N)N)C(=O)NC(C(O)C(=O)O)C(=O)NC(CO)C(=O)N2CCC(O)C2C(=O)NC(C(O)C(=O)O)C(=O)O1 (stereo not shown) [Tripropeptin Z] (TPPR[ξAsp(3ξ-OH)]S[X1][ξAsp(3ξ-OH)]; linker N-C via X3; configuration not given here) | > 100 | < 0.39 | > 50 | 12.5 (≈ 11.2 µM) | > 100 | 100 (≈ 89.9 µM) | 100 (≈ 89.9 µM) | > 50 | 25 (≈ 22.5 µM) | > 100 | 6.25 (≈ 5.62 µM) | 25 (≈ 22.5 µM) | 6.25 (≈ 5.62 µM) | > 100 | 25 (≈ 22.5 µM) | > 100 | 100 (≈ 89.9 µM) | 25 (≈ 22.5 µM) | 25 (≈ 22.5 µM) | 25 (≈ 22.5 µM) | MIC ([2]; Bacillus cereus ATCC10702, Mueller-Hinton agar, read-out: Minimum growth inhibitory concentration): > 50 µg/mL; MIC [11, 22]: 25 µg/mL (≈ 22.5 µM); MIC [12, 23]: 25 µg/mL (≈ 22.5 µM); MIC ([20]; Staphylococcus aureus MS16460 (methicillin-resistant), Mueller-Hinton agar): 50 µg/mL (≈ 45 µM)
